The results in this text go back to ChEMBL document CHEMBL1208710, “NF-kappaB inducing kinase (NIK) inhibitors: identification of new scaffolds using virtual screening” (Bioorg Med Chem Lett, 2010).

A word on the IC50: it is the concentration that inhibits the measured activity by half. The term inhibition denotes the percentage by which the read-out fell short of the control.

The target in assay [1] is T1, Mitogen-activated protein kinase kinase kinase 14 (Homo sapiens, UniProt Q99558). In words: Inhibition of human recombinant GST-fused NIK expressed in Sf9 cells after 60 mins by radiometric protein kinase assay.
Target sequence in this assay (Q99558 whole entry, the tested form may be a part): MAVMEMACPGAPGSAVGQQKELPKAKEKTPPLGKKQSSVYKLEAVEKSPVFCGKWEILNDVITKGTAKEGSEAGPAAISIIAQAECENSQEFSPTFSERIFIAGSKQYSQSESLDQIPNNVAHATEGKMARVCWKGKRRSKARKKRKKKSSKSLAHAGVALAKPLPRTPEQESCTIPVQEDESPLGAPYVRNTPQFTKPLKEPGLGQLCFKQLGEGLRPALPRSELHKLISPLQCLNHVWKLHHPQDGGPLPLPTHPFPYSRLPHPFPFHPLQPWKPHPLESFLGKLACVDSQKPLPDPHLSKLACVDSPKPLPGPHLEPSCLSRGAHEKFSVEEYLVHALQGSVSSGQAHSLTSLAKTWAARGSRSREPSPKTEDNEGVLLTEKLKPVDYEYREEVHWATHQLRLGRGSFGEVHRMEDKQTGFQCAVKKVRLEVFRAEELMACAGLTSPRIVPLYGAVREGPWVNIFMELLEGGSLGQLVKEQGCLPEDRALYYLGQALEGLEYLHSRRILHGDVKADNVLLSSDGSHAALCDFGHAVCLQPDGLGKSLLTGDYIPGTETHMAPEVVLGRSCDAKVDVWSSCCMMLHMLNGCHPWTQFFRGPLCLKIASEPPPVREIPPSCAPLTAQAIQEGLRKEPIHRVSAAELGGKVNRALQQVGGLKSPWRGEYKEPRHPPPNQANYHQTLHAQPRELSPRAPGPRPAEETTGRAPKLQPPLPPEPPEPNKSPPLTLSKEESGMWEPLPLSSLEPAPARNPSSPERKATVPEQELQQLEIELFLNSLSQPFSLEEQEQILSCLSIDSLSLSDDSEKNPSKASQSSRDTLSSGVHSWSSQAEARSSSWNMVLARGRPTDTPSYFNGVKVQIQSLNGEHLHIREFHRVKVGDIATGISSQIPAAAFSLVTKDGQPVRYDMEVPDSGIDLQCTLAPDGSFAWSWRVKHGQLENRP
The target in assay [2] is T1, Mitogen-activated protein kinase kinase kinase 14. In words: Inhibition of human recombinant GST-fused NIK expressed in Sf9 cells at 50 uM after 60 mins by radiometric protein kinase assay.
Target sequence in this assay (Q99558 whole entry, looked up, the tested form may be a part): as the sequence (Q99558 whole entry, the tested form may be a part) above

Consider `CCO/C=C1/C(=O)NC(=O)c2ccccc21`, for which the half-inhibitory concentration (IC50) in assay [1] is over 50 µM. Moreover, the inhibition in assay [2] is 44%.

`O=C1Cc2ccccc2C(=O)N1`: the half-maximal inhibitory concentration (IC50) in assay [1] was 51 µM. The inhibition in assay [2] was determined as 60%.

For the compound `O=C(Cn1c(=O)[nH]c(=O)c2ccccc21)NCc1ccccn1`, the inhibition in assay [2] was under 15%.

In the case of `CN(C)c1ccc(CNC(=O)Cn2c(=O)[nH]c(=O)c3ccccc32)cc1`, the inhibition in assay [2] was under 15%.

`O=C1CC2CC(=O)NC(=O)C2C(=O)N1` (stereo unspecified): the IC50 in assay [1] stood at 90 µM. In assay [2], the inhibition was 53%.

`O=C1NC(=O)c2ccccc2/C1=C\c1cccs1`: the concentration for half-maximal inhibition (IC50) in assay [1] was over 100 µM. Also, in assay [2], the inhibition turned out to be 25%.

On to `CCOC(=O)N1CCC(NC(=O)Cn2c(=O)[nH]c(=O)c3ccccc32)CC1`, for which the inhibition in assay [2] was under 15%.

For `O=C1Cc2ccccc2CN1`, the IC50 in assay [1] is over 100 µM.

`CC1=CC(=O)c2c(O)cccc2C1=O` [PLUMBAGIN]: the 50% inhibitory concentration (IC50) in assay [1] was over 100 µM. Also, the inhibition in assay [2] was determined as 60%.

Regarding `O=c1[nH]c(=O)c2c(Cl)cc(Cl)cc2[nH]1`, the IC50 in assay [1] was over 100 µM.

Consider `CC(NC(=O)Cn1c(=O)[nH]c(=O)c2ccccc21)c1cccs1` (stereo unspecified), for which the inhibition in assay [2] was under 15%.
